Laboratory results as given in PubChem BioAssay AID1963449 (Molecular Pharmacology Branch, DTP, NCI, 2024).
pIC50: −log10 of the molar value.

Test system: 596521-263-R-J1-PDC complex spheroid growth
Assay: Anticancer human tumor 596521-263-R-J1-PDC patient-derived soft tissue sarcoma cell line growth inhibition [Asc]
Details: for pIC50: curve of first compound; for viability, T/C: stronger effect = lower value
Experimental: Multicellular complex tumor spheroid response to apoptosis pathway targeting inhibitors Alrizomadlin, Pelcitoclax, and Dasminapant in combination with a variety of drugs and investigational agents in selected tumor cell lines
The MDM2 inhibitor alrizomadlin, the Bcl-2/Bcl-xL inhibitor pelcitoclax, and the IAPs inhibitor dasminapant were evaluated both individually and in combination with standard of care and investigational anticancer small molecules within a complex spheroid model of solid tumors. . Complex spheroids include a stromal component modeled by human endothelial cells (HUVEC) and fibroblasts modeled by human mesenchymal stem cells (MSCs). The concentration ranges selected for each drug and investigational agent were based upon clinically achievable concentrations if the clinical Cmax of the agent was known.
Compounds. The drugs and investigational agents: alrizomadlin (APG-115; NSC831270), pelcitoclax (APG-1252; NSC835773), dasminapant (APG-1387;NSC834197), TAK-243 (NSC785004), copanlisib (NSC809693), olaparib (NSC753686), talazoparib (NSC767125), cobimetinib (NSC 768068), eltanexor (KPT-8602, NSC 794443), abemaciclib (NSC 768073), sotorasib (NSC818433), adagrasib (NSC 831453), MRTX-1133 (NSC 836407), Iadademestat (ORY1001, NSC 806812), and RMC-4630 (NSC839698), were obtained from the NCI Developmental Therapeutics Program Chemical Repository. The FDA-approved anticancer drug set is available from the Developmental Therapeutics Program at https://dtp.cancer.gov/organization/dscb/obtaining/available plates.htm. […] The stock solutions were prepared in dimethyl sulfoxide (DMSO, Sigma-Aldrich, St. Louis, MO, cat. D2650) at 800-fold the tested concentration and stored at -70 degrees C prior to their use. All drugs and investigational agents were tested over a range starting from a high concentration at or near the clinical Cmax and decreasing in half-log increments. If the clinical Cmax for an agent had not been determined, the highest concentration tested was 10 microM.
The patient-derived cancer (PDC) cell lines include five colon adenocarcinomas: 186277-243-T-J2-PDC, 616215-338-R-J1-PDC, 439559-082-T-J2-PDC, 463943-066-T-J2-PDC, and 519858-162-T-J1-PDC; three pancreatic carcinomas: 323965-272-R-J2-PDC, 521955-158-R6-J3-PDC, and 521955-158-R2-J5-PDC; two uterine sarcomas: 327498-152-R-J2-PDC and 993429-296-R-J1-PDC; two rhabdomyosarcomas: 755483-174-R-J1-PDC and 772245-204-R-J1-PDC; two soft tissue sarcomas: 126254-015-R-J1-PDC and 494315-158-R-J1-PDC; two malignant fibrous histiocytomas: 317291-083-R-J1-PDC and 596521-263-R-J1-PDC; two breast carcinomas: 171881-019-R-J1-PDC and 885512-296-R-J2-PDC; and one ovarian carcinoma: 6556581-035-R-J-PDC were obtained from the NCI PDMR, (https://pdmr.cancer.gov). The established cell lines HSSY-2 synovial sarcoma (RRID:CVCL 8719), SYO-1 synovial sarcoma (RRID:CVCL_7146), MPNST malignant peripheral neural sheath tumor were obtained from the Sloan Kettering Institute. The following established cell lines were purchased from the American Type Culture Collection (ATCC, Manassas, VA), Sor the received from the NCI repository:, PANC-1 pancreatic carcinoma (CRL-1469, RRID:CVCL_0480), OVCAR-5 ovarian carcinoma (RRID:CVCL_1628), OVCAR-8 ovarian carcinoma (RRID:CVCL_1629), , MCF-7 breast carcinoma (CRL-12584, RRID:CVCL_0031), MDA-MB-231 breast carcinoma (CRL-12532, RRID:CVCL_0062), NCI-H1876 small cell lung carcinoma (CRL-5902, RRID:CVCL_1503), NCI-H510A small cell lung carcinoma (HTB-184, RRID:CVCL_1565), NCI-H1417 (CRL-5869, RRID:CVCL_1469), and NCI-H196 small cell lung carcinoma (CRL-5823, RRID:CVCL_1509). Dr. Peter Houghton (Greehey Children's Cancer Research Institute, University of Texas Health Science Center, San Antonio, TX) provided Rh-18 rhabdomyosarcoma (RRID:CVCL_1659). Pooled donor human umbilical vein endothelial cells (HUVEC, Lonza, cat. CC-2519) and human mesenchymal stem cells (hMSC, Lonza, cat. PT-2501) were purchased from Lonza (Walkersville, MD).
Cell Culture. […]
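Further: spheroids exposed to compounds for 7 days.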

In the case of Cn1ncnc1[C@H]1c2n[nH]c(=O)c3cc(F)cc(c23)N[C@@H]1c1ccc(F)cc1 + CCN1C(C(=O)NC23CCC(C(=O)O)(CC2)CC3)C(c2cccc(Cl)c2F)C2(C(=O)Nc3cc(Cl)ccc32)C12CCCCC2, the pIC50 (second compound 0.00949 µM) was under 7.00, the pIC50 (second compound 0.03 µM) was under 7.00 and the pIC50 (second compound 0.0949 µM) was under 7.00. For the same compound, the pIC50 (second compound 0.3 µM) was under 7.00, the pIC50 (second compound 0.949 µM) was under 7.00 and the pIC50 (second compound 3 µM) was under 7.00. For the same compound, the viability, T/C (second compound 0.00949 µM, first compound 0.000316 µM) was 109%, the viability, T/C (second compound 0.00949 µM, first compound 0.001 µM) was 94.8% and the viability, T/C (second compound 0.00949 µM, first compound 0.00316 µM) was 96.6%. For the same compound, the viability, T/C (second compound 0.00949 µM, first compound 0.01 µM) was 91.8%, the viability, T/C (second compound 0.00949 µM, first compound 0.0316 µM) was 88.4% and the viability, T/C (second compound 0.00949 µM, first compound 0.1 µM) was 81.8%. The viability, T/C (second compound 0.03 µM, first compound 0.000316 µM) was 103%, the viability, T/C (second compound 0.03 µM, first compound 0.001 µM) was 98.1% and the viability, T/C (second compound 0.03 µM, first compound 0.00316 µM) was 100%. The viability, T/C (second compound 0.03 µM, first compound 0.01 µM) was 105%, the viability, T/C (second compound 0.03 µM, first compound 0.0316 µM) was 90.1% and the viability, T/C (second compound 0.03 µM, first compound 0.1 µM) was 81.1%. The viability, T/C (second compound 0.0949 µM, first compound 0.000316 µM) was 104%, the viability, T/C (second compound 0.0949 µM, first compound 0.001 µM) was 102% and the viability, T/C (second compound 0.0949 µM, first compound 0.00316 µM) was 106%. It also gave a viability, T/C (second compound 0.0949 µM, first compound 0.01 µM) of 88.7%, a viability, T/C (second compound 0.0949 µM, first compound 0.0316 µM) of 87.8% and a viability, T/C (second compound 0.0949 µM, first compound 0.1 µM) of 78.6%. For the same compound, the viability, T/C (second compound 0.3 µM, first compound 0.000316 µM) was 104%, the viability, T/C (second compound 0.3 µM, first compound 0.001 µM) was 99.9% and the viability, T/C (second compound 0.3 µM, first compound 0.00316 µM) was 110%. The viability, T/C (second compound 0.3 µM, first compound 0.01 µM) was 108%, the viability, T/C (second compound 0.3 µM, first compound 0.0316 µM) was 104% and the viability, T/C (second compound 0.3 µM, first compound 0.1 µM) was 87.3%. For the same compound, the viability, T/C (second compound 0.949 µM, first compound 0.000316 µM) was 102%, the viability, T/C (second compound 0.949 µM, first compound 0.001 µM) was 91.2% and the viability, T/C (second compound 0.949 µM, first compound 0.00316 µM) was 91.2%. For the same compound, the viability, T/C (second compound 0.949 µM, first compound 0.01 µM) was 92.4%, the viability, T/C (second compound 0.949 µM, first compound 0.0316 µM) was 99.4% and the viability, T/C (second compound 0.949 µM, first compound 0.1 µM) was 85.5%. The viability, T/C (second compound 3 µM, first compound 0.000316 µM) was 76.4%, the viability, T/C (second compound 3 µM, first compound 0.001 µM) was 78.5% and the viability, T/C (second compound 3 µM, first compound 0.00316 µM) was 80.6%. For the same compound, the viability, T/C (second compound 3 µM, first compound 0.01 µM) was 70.3%, the viability, T/C (second compound 3 µM, first compound 0.0316 µM) was 75.3% and the viability, T/C (second compound 3 µM, first compound 0.1 µM) was 65.7%.

NC(=O)C(=Cn1cnc(-c2cc(C(F)(F)F)cc(C(F)(F)F)c2)n1)c1cncnc1 + Cc1c(S(C)(=O)=O)c(-c2cc(F)cc(N3CCN(c4ccc(NS(=O)(=O)c5ccc(NC(CCN6CCC(C(=O)OCCCP(=O)(O)O)CC6)CSc6ccccc6)c(S(=O)(=O)C(F)(F)F)c5)cc4)CC3)c2)c(-c2ccc(Cl)cc2)n1C(C)C gave a pIC50 (second compound 0.0316 µM) of 7.57, a pIC50 (second compound 0.1 µM) of 7.60 and a pIC50 (second compound 0.316 µM) of 7.73. The pIC50 (second compound 1 µM) was 7.81, the pIC50 (second compound 3.16 µM) was 8.07 and the pIC50 (second compound 10 µM) was over 9.02. For the same compound, the viability, T/C (second compound 0.0316 µM, first compound 0.000949 µM) was 98.4%, the viability, T/C (second compound 0.0316 µM, first compound 0.003 µM) was 101% and the viability, T/C (second compound 0.0316 µM, first compound 0.00949 µM) was 80.7%. The viability, T/C (second compound 0.0316 µM, first compound 0.03 µM) was 49.4%, the viability, T/C (second compound 0.0316 µM, first compound 0.0949 µM) was 10.3% and the viability, T/C (second compound 0.0316 µM, first compound 0.3 µM) was 4.54%. It also gave a viability, T/C (second compound 0.1 µM, first compound 0.000949 µM) of 84.2%, a viability, T/C (second compound 0.1 µM, first compound 0.003 µM) of 94.9% and a viability, T/C (second compound 0.1 µM, first compound 0.00949 µM) of 71.8%. For the same compound, the viability, T/C (second compound 0.1 µM, first compound 0.03 µM) was 48.5%, the viability, T/C (second compound 0.1 µM, first compound 0.0949 µM) was 6.86% and the viability, T/C (second compound 0.1 µM, first compound 0.3 µM) was 2.64%. The viability, T/C (second compound 0.316 µM, first compound 0.000949 µM) was 94.8%, the viability, T/C (second compound 0.316 µM, first compound 0.003 µM) was 82.6% and the viability, T/C (second compound 0.316 µM, first compound 0.00949 µM) was 71.9%. The viability, T/C (second compound 0.316 µM, first compound 0.03 µM) was 36.9%, the viability, T/C (second compound 0.316 µM, first compound 0.0949 µM) was 5.33% and the viability, T/C (second compound 0.316 µM, first compound 0.3 µM) was 1.97%. It also gave a viability, T/C (second compound 1 µM, first compound 0.000949 µM) of 76%, a viability, T/C (second compound 1 µM, first compound 0.003 µM) of 80.1% and a viability, T/C (second compound 1 µM, first compound 0.00949 µM) of 57.9%. It also gave a viability, T/C (second compound 1 µM, first compound 0.03 µM) of 37.2%, a viability, T/C (second compound 1 µM, first compound 0.0949 µM) of 3.95% and a viability, T/C (second compound 1 µM, first compound 0.3 µM) of 1.71%. The viability, T/C (second compound 3.16 µM, first compound 0.000949 µM) was 68.7%, the viability, T/C (second compound 3.16 µM, first compound 0.003 µM) was 57.7% and the viability, T/C (second compound 3.16 µM, first compound 0.00949 µM) was 50.6%. The viability, T/C (second compound 3.16 µM, first compound 0.03 µM) was 21.3%, the viability, T/C (second compound 3.16 µM, first compound 0.0949 µM) was 3.51% and the viability, T/C (second compound 3.16 µM, first compound 0.3 µM) was 1.52%. For the same compound, the viability, T/C (second compound 10 µM, first compound 0.000949 µM) was 47.4%, the viability, T/C (second compound 10 µM, first compound 0.003 µM) was 51.3% and the viability, T/C (second compound 10 µM, first compound 0.00949 µM) was 35.7%. It also gave a viability, T/C (second compound 10 µM, first compound 0.03 µM) of 23.6%, a viability, T/C (second compound 10 µM, first compound 0.0949 µM) of 3.04% and a viability, T/C (second compound 10 µM, first compound 0.3 µM) of 1.13%.
